Tests used:
[1] = Abiraterone plasma exposure in monkeys, vehicle comparison; assay type: in vivo; conditions: corn oil 70%, benzyl benzoate 20%, same concentration and dose
Excerpt: In some embodiments, the abiraterone prodrug formulation can comprise a combination of benzyl alcohol and benzyl benzoate as cosolvents. In some embodiments, the benzyl alcohol can be present in an amount of about 0-20% (e.g., 0-15% or 0-10%, such as about 10%) of the solvent, and benzyl benzoate can be present in an amount of about 0-50% (e.g., 0-35% or 0-30%, such as about 20%) of the solvent, wherein the balance of the solvent can be any one or more of the pharmaceutically acceptable oil described herein, such as corn oil, castor oil, sesame oil, peanut oil, cottonseed oil, and/or Miglyol 812, etc.

[2] = system: serum testosterone; assay: Phase 1/2a open-label study of i.m. abiraterone decanoate depot in advanced prostate cancer: serum testosterone; assay type: in vivo, human; conditions: for serum testosterone reduction from baseline: day 168
Experimental: This is a Phase 1/2a, Open-label, Multicenter Study of Intramuscular Abiraterone Decanoate Depot in Patients with Advanced Prostate Cancer.
Formulations and dosing regimen: The formulation used in the study (abiraterone decanoate for intramuscular [i.m.] injection) is a solution formulation of abiraterone decanoate at a concentration of 180 mg/mL and will be provided as a 10 mL vial containing 990 mg of abiraterone decanoate in 5.5 mL of solution. See further details of the formulations in Example 2 (for each milliliter: Abiraterone Decanoate, about 180 mg/mL; Benzyl Alcohol, about 100 mg/mL; Benzyl Benzoate, about 200 mg/mL; and Corn oil, q.s. to 1 mL). Abiraterone Decanoate will be administered as an i.m. injection every 84 days (±3 days). Dose escalation will proceed with a modified Fibonacci sequence. Based on emerging data, intermediate doses may be evaluated.
Study Design: This is a Phase 1/2a, Open-label, Multicenter Study of Intramuscular Abiraterone Decanoate Depot in Patients with Advanced Prostate Cancer. In Phase 1, all patients will receive i.m. Abiraterone Decanoate depot in 84-day treatment cycles combined with daily oral prednisone or dexamethasone. In Phase 2a, patients will be randomized 1:1 and treated with i.m. Abiraterone Decanoate depot in 84-day treatment cycles in combination with dexamethasone (Arm A) or abiraterone acetate daily+prednisone (Arm B). In both Phases, patients will undergo scheduled periodic assessments of serum testosterone levels. Participants may continue treatment until they meet any discontinuation criteria outlined in the protocol.
Phase 1—Dose Escalation: Eligible patients with metastatic castration-sensitive prostate cancer (mCSPC) and patients with metastatic castration-resistant prostate cancer (mCRPC) will be enrolled. The initial dose of Abiraterone Decanoate to be administered is based on findings from completed non-human primate toxicology and pharmacology studies; dose escalation will proceed in a modified Fibonacci sequence. A Safety Review Committee (SRC) will be established to review available cohort safety data, and pharmacokinetic and pharmacodynamic findings (particularly testosterone suppression) to recommend a decision on dose escalation including whether intermediate doses should be explored.
Pharmacodynamic Analysis: Determination of Prostate Specific Antigen (PSA), serum testosterone, dehydroepiandrosterone (DHEA), dehydroepiandrosterone sulfate (DHEA-S), androstenedione, dihydrotestosterone (DHT), progesterone, cortisol, adrenocorticotropic hormone (ACTH), corticosterone, 11-dexoycorticosterone (11-DOC) and 11-deoxycortisol.
Based on the available data, the recommended dose for Phase 2 is about 1260 mg abiraterone decanoate once every three months (12 weeks). All cohorts 1 and 2 in this clinical study were treated with prednisone, 5 mg orally once or twice daily; and all cohorts 3-5 were treated with dexamethasone, 0.5 mg orally once daily. The results shown herein for these cohorts should be understood accordingly.
The median baseline T level, calculated from mean of screening and Day 1 of Cycle 1 pre-dose samples, was 7.45 ng/dL.

Q: Which results are given for CCCCCCCCCC(=O)O[C@H]1CC[C@@]2(C)C(=CC[C@@H]3[C@@H]2CC[C@]2(C)C(c4cccnc4)=CC[C@@H]32)C1 [abiraterone decanoate]?
A: abiraterone plasma exposure versus corn oil 90% / benzyl alcohol 10% formulation [1]: much higher abiraterone plasma exposure; Serum Testosterone (% CFB) ([2]; Cohort 1, 180 mg i.m., Study Day 1 (baseline)): 0%; Serum Testosterone (% CFB) ([2]; Cohort 1, 180 mg i.m., Study Day 2): −33%; Serum Testosterone (% CFB) ([2]; Cohort 1, 180 mg i.m., Study Day 3): −42%; Serum Testosterone (% CFB) ([2]; Cohort 1, 180 mg i.m., Study Day 5): −48%; Serum Testosterone (% CFB) ([2]; Cohort 1, 180 mg i.m., Study Day 7): −52%; Serum Testosterone (% CFB) ([2]; Cohort 1, 180 mg i.m., Study Day 10): −61%; Serum Testosterone (% CFB) ([2]; Cohort 1, 180 mg i.m., Study Day 14): −67%; Serum Testosterone (% CFB) ([2]; Cohort 1, 180 mg i.m., Study Day 21): −71%; Serum Testosterone (% CFB) ([2]; Cohort 1, 180 mg i.m., Study Day 28): −73%; Serum Testosterone (% CFB) ([2]; Cohort 1, 180 mg i.m., Study Day 42): −65%; Serum Testosterone (% CFB) ([2]; Cohort 1, 180 mg i.m., Study Day 56): −55%; Serum Testosterone (% CFB) ([2]; Cohort 1, 180 mg i.m., Study Day 70): −47%; Serum Testosterone (% CFB) ([2]; Cohort 2, 360 mg i.m., Study Day 1 (baseline)): 0%; Serum Testosterone (% CFB) ([2]; Cohort 2, 360 mg i.m., Study Day 2): −11%; Serum Testosterone (% CFB) ([2]; Cohort 2, 360 mg i.m., Study Day 3): 0%; Serum Testosterone (% CFB) ([2]; Cohort 2, 360 mg i.m., Study Day 5): −28%; Serum Testosterone (% CFB) ([2]; Cohort 2, 360 mg i.m., Study Day 7): −49%; Serum Testosterone (% CFB) ([2]; Cohort 2, 360 mg i.m., Study Day 10): −51%; Serum Testosterone (% CFB) ([2]; Cohort 2, 360 mg i.m., Study Day 14): −67%; Serum Testosterone (% CFB) ([2]; Cohort 2, 360 mg i.m., Study Day 21): −72%; Serum Testosterone (% CFB) ([2]; Cohort 2, 360 mg i.m., Study Day 28): −71%; Serum Testosterone (% CFB) ([2]; Cohort 2, 360 mg i.m., Study Day 42): −64%; Serum Testosterone (% CFB) ([2]; Cohort 2, 360 mg i.m., Study Day 56): −60%; Serum Testosterone (% CFB) ([2]; Cohort 2, 360 mg i.m., Study Day 70): −56%; Serum Testosterone (% CFB) ([2]; Cohort 2, 360 mg i.m., Study Day 77): −56%; Serum Testosterone (% CFB) ([2]; Cohort 2, 360 mg i.m., Study Day 84): −49%; Serum Testosterone (% CFB) ([2]; Cohort 2, 360 mg i.m., Study Day 112): −79%; Serum Testosterone (% CFB) ([2]; Cohort 2, 360 mg i.m., Study Day 140): −63%; Serum Testosterone (% CFB) ([2]; Cohort 2, 360 mg i.m., Study Day 168): −32%; Serum Testosterone (% CFB) ([2]; Cohort 2, 360 mg i.m., Study Day 196): −56%; Serum Testosterone (% CFB) ([2]; Cohort 3, 720 mg i.m., Study Day 1 (baseline)): 0%; Serum Testosterone (% CFB) ([2]; Cohort 3, 720 mg i.m., Study Day 2): −41%; Serum Testosterone (% CFB) ([2]; Cohort 3, 720 mg i.m., Study Day 3): −50%; Serum Testosterone (% CFB) ([2]; Cohort 3, 720 mg i.m., Study Day 5): −48%; Serum Testosterone (% CFB) ([2]; Cohort 3, 720 mg i.m., Study Day 7): −65%; Serum Testosterone (% CFB) ([2]; Cohort 3, 720 mg i.m., Study Day 10): −74%; Serum Testosterone (% CFB) ([2]; Cohort 3, 720 mg i.m., Study Day 14): −82%; Serum Testosterone (% CFB) ([2]; Cohort 3, 720 mg i.m., Study Day 21): −87%; Serum Testosterone (% CFB) ([2]; Cohort 3, 720 mg i.m., Study Day 28): −85%; Serum Testosterone (% CFB) ([2]; Cohort 3, 720 mg i.m., Study Day 42): −81%; Serum Testosterone (% CFB) ([2]; Cohort 3, 720 mg i.m., Study Day 56): −83%; Serum Testosterone (% CFB) ([2]; Cohort 3, 720 mg i.m., Study Day 70): −81%; Serum Testosterone (% CFB) ([2]; Cohort 3, 720 mg i.m., Study Day 77): −80%; Serum Testosterone (% CFB) ([2]; Cohort 3, 720 mg i.m., Study Day 84): −76%; Serum Testosterone (% CFB) ([2]; Cohort 3, 720 mg i.m., Study Day 112): −94%; Serum Testosterone (% CFB) ([2]; Cohort 3, 720 mg i.m., Study Day 140): −88%; Serum Testosterone (% CFB) ([2]; Cohort 3, 720 mg i.m., Study Day 168): −80%; Serum Testosterone (% CFB) ([2]; Cohort 3, 720 mg i.m., Study Day 196): −93%; Serum Testosterone (% CFB) ([2]; Cohort 4, 1260 mg i.m., Study Day 1 (baseline)): 0%; Serum Testosterone (% CFB) ([2]; Cohort 4, 1260 mg i.m., Study Day 2): −51%; Serum Testosterone (% CFB) ([2]; Cohort 4, 1260 mg i.m., Study Day 3): −65%; Serum Testosterone (% CFB) ([2]; Cohort 4, 1260 mg i.m., Study Day 5): −69%; Serum Testosterone (% CFB) ([2]; Cohort 4, 1260 mg i.m., Study Day 7): −79%; Serum Testosterone (% CFB) ([2]; Cohort 4, 1260 mg i.m., Study Day 10): −79%; Serum Testosterone (% CFB) ([2]; Cohort 4, 1260 mg i.m., Study Day 14): −80%; Serum Testosterone (% CFB) ([2]; Cohort 4, 1260 mg i.m., Study Day 21): −88%; Serum Testosterone (% CFB) ([2]; Cohort 4, 1260 mg i.m., Study Day 28): −89%; Serum Testosterone (% CFB) ([2]; Cohort 4, 1260 mg i.m., Study Day 42): −90%; Serum Testosterone (% CFB) ([2]; Cohort 4, 1260 mg i.m., Study Day 56): −89%; Serum Testosterone (% CFB) ([2]; Cohort 4, 1260 mg i.m., Study Day 70): −80%; Serum Testosterone (% CFB) ([2]; Cohort 4, 1260 mg i.m., Study Day 77): −87%; Serum Testosterone (% CFB) ([2]; Cohort 4, 1260 mg i.m., Study Day 84): −83%; Serum Testosterone (% CFB) ([2]; Cohort 4, 1260 mg i.m., Study Day 112): −93%; Serum Testosterone (% CFB) ([2]; Cohort 4, 1260 mg i.m., Study Day 140): −89%; Serum Testosterone (% CFB) ([2]; Cohort 4, 1260 mg i.m., Study Day 168): −86%; Serum Testosterone (% CFB) ([2]; Cohort 4, 1260 mg i.m., Study Day 196): −97%; Serum Testosterone (% CFB) ([2]; Cohort 5, 1800 mg i.m., Study Day 1 (baseline)): 0%; Serum Testosterone (% CFB) ([2]; Cohort 5, 1800 mg i.m., Study Day 2): −41%; Serum Testosterone (% CFB) ([2]; Cohort 5, 1800 mg i.m., Study Day 3): −46%; Serum Testosterone (% CFB) ([2]; Cohort 5, 1800 mg i.m., Study Day 5): −62%; Serum Testosterone (% CFB) ([2]; Cohort 5, 1800 mg i.m., Study Day 7): −76%; Serum Testosterone (% CFB) ([2]; Cohort 5, 1800 mg i.m., Study Day 10): −79%; Serum Testosterone (% CFB) ([2]; Cohort 5, 1800 mg i.m., Study Day 14): −85%; Serum Testosterone (% CFB) ([2]; Cohort 5, 1800 mg i.m., Study Day 21): −88%; Serum Testosterone (% CFB) ([2]; Cohort 5, 1800 mg i.m., Study Day 28): −88%; Serum Testosterone (% CFB) ([2]; Cohort 5, 1800 mg i.m., Study Day 42): −93%; Serum Testosterone (% CFB) ([2]; Cohort 5, 1800 mg i.m., Study Day 56): −79%; Serum Testosterone (% CFB) ([2]; Cohort 5, 1800 mg i.m., Study Day 70): −87%; Serum Testosterone (% CFB) ([2]; Cohort 5, 1800 mg i.m., Study Day 77): −88%; Serum Testosterone (% CFB) ([2]; Cohort 5, 1800 mg i.m., Study Day 84): −88%; Serum Testosterone (% CFB) ([2]; Cohort 5, 1800 mg i.m., Study Day 112): −83%; Serum Testosterone (% CFB) ([2]; Cohort 5, 1800 mg i.m., Study Day 140): −96%; Serum Testosterone (% CFB) ([2]; Cohort 5, 1800 mg i.m., Study Day 168): −95%; Serum Testosterone (% CFB) ([2]; Cohort 5, 1800 mg i.m., Study Day 196): −98%; decline in testosterone ([2]; Patient 1, cohort 1, 180 mg, treatment days 21-56): 59-61%; androgen suppression ([2]; Patient 2, cohort 2, 360 mg, progressed after Xtandi, FIG. 6): sustained androgen suppression; serum testosterone reduction from baseline ([2]; cohort 3 (720 mg)): 80%; serum testosterone reduction from baseline ([2]; cohort 4 (1260 mg)): 86%; serum testosterone reduction from baseline ([2]; cohort 5 (1800 mg)): up to 95%; patients with a 90% reduction in testosterone levels compared to baseline or values reduced to ≤1 ng/dL ([2]; patients dosed at 720 mg and above, day 28): 13 out of 16
